Assay results: PMC12058161, “The plant matrix of Artemisia annua L. for the treatment of malaria: Pharmacodynamic and pharmacokinetic studies” (PLOS One, 2025)
Values joined by “and” are separate entries in the source; they are usually repeats but may differ in a detail not shown here. Equal entries are not always repeated.

Tests used:
[1] = system: Caco-2 cell monolayers; assay: Bidirectional transport of ART across Caco-2 cell monolayers (LC-MS/MS); format: in vitro ADME, human; settings: for transhipment of ART, AP-BL / transhipment of ART, Transepithelial transport in BL-to-AP: single replicate; for ART concentration per group, summary block: summary used for cumulative amount
Text: (§1) The human epithelial cell line Caco-2 serves as a widely recognized model for the intestinal epithelial barrier, frequently utilized in the assessment of drug absorption and transport mechanisms. In this study, we evaluated drug absorption and distribution in vitro with the help of the Caco-2 cell model. Caco-2 cells were purchased from the Chinese Academy of Medical Sciences (Beijing, China, Resource No. 3111C0001CCC000100). The cells were resuscitated and inserted into culture flasks. Caco-2 cells were passaged with DMEM high glucose medium containing 10% (V/V) FBS, 1% (V/V) non-essential amino acid solution and 100 U/mL penicillin-streptomycin double antibiotic solution, and cultured at 37°C in a 5% CO2 incubator. […] The integrity of the cell monolayer was checked by measuring the transmembrane electrical resistance (TEER) of the monolayer cells with a Millicell-ERS electrode (Millipore Corp., Billerica, MA, USA). Caco-2 cells were used for transport experiments 17-21 days after inoculation. Besides, only monolayers with TEER values above 400 Ω/cm^2 were used in the study. […] To prepare drug-treated Caco-2 cell monolayers, Caco-2 cells cultured in Transwell® inserts were aseptically treated on day 21 with 10 μM of […] and nACTs. […] The excitation wavelength was set at 485 nm, and the emission wavelength at 535 nm. […] The efflux ratio was calculated using the Papp (BL-AP) to Papp (AP-BL) ratio. […] The solvent gradient was 65%B-95%B for 0-5 min; 95%B for 5-6 min; and 35%B for 6-9 min.

[2] = as above; format: in vitro ADME, human; settings: human, Caco-2 monolayer, n = 3
Text: as §1

[3] = target: T1, P-glycoprotein (P-gp) (Homo sapiens, UniProt P08183); assay: Rhodamine 123 (P-gp substrate) transport across drug-treated Caco-2 cell monolayers; format: cell-based; settings: co-incubated with R123, 10 μM, Caco-2 monolayer, Fig 6
T1 construct: The transport of R123 in normal Caco-2 cell monolayers or drug-treated Caco-2 cell monolayers was further studied; host or cells: Caco-2
T1 sequence (P08183 whole entry): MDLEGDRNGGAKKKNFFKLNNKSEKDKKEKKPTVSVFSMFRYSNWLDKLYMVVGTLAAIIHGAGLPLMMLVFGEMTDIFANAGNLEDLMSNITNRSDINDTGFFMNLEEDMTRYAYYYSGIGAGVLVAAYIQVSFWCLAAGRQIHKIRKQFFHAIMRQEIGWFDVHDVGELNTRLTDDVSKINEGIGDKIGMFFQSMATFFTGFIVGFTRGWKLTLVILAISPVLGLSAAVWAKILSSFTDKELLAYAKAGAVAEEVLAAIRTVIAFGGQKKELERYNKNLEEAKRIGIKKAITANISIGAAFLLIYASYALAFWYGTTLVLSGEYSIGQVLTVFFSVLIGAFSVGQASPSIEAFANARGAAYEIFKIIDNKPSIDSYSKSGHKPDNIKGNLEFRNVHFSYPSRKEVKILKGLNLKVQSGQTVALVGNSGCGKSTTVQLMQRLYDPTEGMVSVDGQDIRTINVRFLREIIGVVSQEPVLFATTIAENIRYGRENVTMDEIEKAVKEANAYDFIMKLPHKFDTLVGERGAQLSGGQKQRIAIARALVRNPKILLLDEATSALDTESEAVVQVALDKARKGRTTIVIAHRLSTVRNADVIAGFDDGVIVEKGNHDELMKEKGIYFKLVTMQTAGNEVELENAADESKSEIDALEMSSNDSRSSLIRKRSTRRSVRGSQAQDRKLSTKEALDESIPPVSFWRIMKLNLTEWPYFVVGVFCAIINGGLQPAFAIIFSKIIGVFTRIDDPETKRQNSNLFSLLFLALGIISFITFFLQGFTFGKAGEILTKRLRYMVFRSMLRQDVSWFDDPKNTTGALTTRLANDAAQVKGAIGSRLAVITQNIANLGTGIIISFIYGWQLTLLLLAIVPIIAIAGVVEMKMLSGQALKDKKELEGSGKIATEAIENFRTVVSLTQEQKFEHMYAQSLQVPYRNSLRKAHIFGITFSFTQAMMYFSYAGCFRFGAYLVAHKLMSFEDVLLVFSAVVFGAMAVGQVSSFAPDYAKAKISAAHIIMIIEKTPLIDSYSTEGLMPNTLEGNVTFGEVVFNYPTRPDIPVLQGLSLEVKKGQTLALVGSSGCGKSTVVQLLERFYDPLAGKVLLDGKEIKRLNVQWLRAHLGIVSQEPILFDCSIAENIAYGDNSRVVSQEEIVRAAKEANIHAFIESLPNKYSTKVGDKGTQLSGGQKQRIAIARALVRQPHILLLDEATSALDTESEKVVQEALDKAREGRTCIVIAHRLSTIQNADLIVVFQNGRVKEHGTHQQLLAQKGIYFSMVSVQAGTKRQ
Text: The human epithelial cell line Caco-2 serves as a widely recognized model for the intestinal epithelial barrier, frequently utilized in the assessment of drug absorption and transport mechanisms. In this study, we evaluated drug absorption and distribution in vitro with the help of the Caco-2 cell model. Caco-2 cells were purchased from the Chinese Academy of Medical Sciences (Beijing, China, Resource No. 3111C0001CCC000100). The cells were resuscitated and inserted into culture flasks. Caco-2 cells were passaged with DMEM high glucose medium containing 10% (V/V) FBS, 1% (V/V) non-essential amino acid solution and 100 U/mL penicillin-streptomycin double antibiotic solution, and cultured at 37°C in a 5% CO2 incubator. […] The integrity of the cell monolayer was checked by measuring the transmembrane electrical resistance (TEER) of the monolayer cells with a Millicell-ERS electrode (Millipore Corp., Billerica, MA, USA). Caco-2 cells were used for transport experiments 17–21 days after inoculation. Besides, only monolayers with TEER values above 400 Ω/cm^2 were used in the study.
The transport of R123 in normal Caco-2 cell monolayers or drug-treated Caco-2 cell monolayers was further studied. […] The transport buffer containing 5 μM of R123 was added on either the AP or the BL side of the inserts, as described above. […] The concentrations of R123 were immediately analyzed by SpectraMax iD3. The excitation wavelength was set at 485 nm, and the emission wavelength at 535 nm. Papp values across the cell monolayers were calculated according to the equation: Papp = dQ/dt × 1/(A × C0), where dQ/dt represents the rate of drug transport. […] The efflux ratio was calculated using the Papp (BL-AP) to Papp (AP-BL) ratio.

[4] = sample code A: apical(AP), 30 min
[5] = sample code A: apical(AP), 60 min
[6] = sample code A: apical(AP), 90 min
[7] = sample code A: apical(AP), 120 min
[8] = sample code A: apical(AP), 150 min
[9] = sample code A: apical(AP), 180 min
[10] = sample code B: basolateral (BL), 30 min
[11] = sample code B: basolateral (BL), 60 min
[12] = sample code B: basolateral (BL), 90 min
[13] = sample code B: basolateral (BL), 120 min
[14] = sample code B: basolateral (BL), 150 min
[15] = sample code B: basolateral (BL), 180 min
[16] = Caco-2, ART given as nACTs equivalent to 10 μM ART

SMILES: C[C@@H]1CC[C@H]2[C@@H](C)C(=O)O[C@@H]3O[C@@]4(C)CC[C@@H]1[C@]32OO4 [ART, Artemisinin, reference compound]
- transhipment of ART, AP-BL ([1]; 30 min): 3.69 nmol and 3.84 nmol and 3.71 nmol
- transhipment of ART, AP-BL ([1]; 60 min): 5.02 nmol and 5.27 nmol and 5.14 nmol
- transhipment of ART, AP-BL ([1]; 90 min): 7.24 nmol and 7.11 nmol and 7.33 nmol
- transhipment of ART, AP-BL ([1]; 120 min): 8.97 nmol and 9.16 nmol and 9.09 nmol
- transhipment of ART, AP-BL ([1]; 150 min): 10.67 nmol and 10.60 nmol and 10.62 nmol
- transhipment of ART, AP-BL ([1]; 180 min): 11.97 nmol (2×) and 11.99 nmol
- transhipment of ART, Transepithelial transport in BL-to-AP ([1]; 30 min): 28.49 nmol and 28.67 nmol and 28.4 nmol
- transhipment of ART, Transepithelial transport in BL-to-AP ([1]; 60 min): 55.39 nmol and 55.5 nmol and 55.82 nmol
- transhipment of ART, Transepithelial transport in BL-to-AP ([1]; 90 min): 69.96 nmol and 69.87 nmol and 69.99 nmol
- transhipment of ART, Transepithelial transport in BL-to-AP ([1]; 120 min): 90.64 nmol and 90.48 nmol and 90.67 nmol
- transhipment of ART, Transepithelial transport in BL-to-AP ([1]; 150 min): 106.51 nmol and 106.61 nmol and 106.74 nmol
- transhipment of ART, Transepithelial transport in BL-to-AP ([1]; 180 min): 124.37 nmol and 124.58 nmol and 124.56 nmol
- ART original concentration, single replicate [1, 4]: 786.91 ng/mL and 1910.44 ng/mL and 2313.90 ng/mL
- ART original concentration, column mean [1, 4]: 2112.17 ng/mL
- ART concentration per group, summary block [1, 4]: 2112.17 ng/mL
- ART original concentration, single replicate [1, 5]: 2149.07 ng/mL and 2049.02 ng/mL and 3232.78 ng/mL
- ART original concentration, column mean [1, 5]: 2640.90 ng/mL
- ART concentration per group, summary block [1, 5]: 2476.96 ng/mL
- ART original concentration, single replicate [1, 6]: 2915.94 ng/mL and 2813.25 ng/mL and 3472.39 ng/mL
- ART original concentration, column mean [1, 6]: 3142.82 ng/mL
- ART concentration per group, summary block [1, 6]: 3067.20 ng/mL
- ART original concentration, single replicate [1, 7]: 3594.17 ng/mL and 3318.58 ng/mL and 3006.12 ng/mL
- ART original concentration, column mean [1, 7]: 3162.35 ng/mL
- ART concentration per group, summary block [1, 7]: 3306.29 ng/mL
- ART original concentration, single replicate [1, 8]: 3213.69 ng/mL and 2917.70 ng/mL and 3363.12 ng/mL
- ART original concentration, column mean [1, 8]: 3140.41 ng/mL
- ART concentration per group, summary block [1, 8]: 3164.84 ng/mL
- ART original concentration, single replicate [1, 9]: 2674.58 ng/mL and 2920.77 ng/mL and 2532.18 ng/mL
- ART original concentration, column mean [1, 9]: 2726.47 ng/mL
- ART concentration per group, summary block [1, 9]: 2709.18 ng/mL
- ART original concentration, single replicate [1, 10]: 5260.58 ng/mL and 5169.96 ng/mL and 5652.08 ng/mL
- ART concentration per group, summary block [1, 10]: 5360.87 ng/mL
- ART original concentration, single replicate [1, 11]: 8719.34 ng/mL and 7267.89 ng/mL and 12129.77 ng/mL
- ART original concentration, column mean [1, 11]: 9698.83 ng/mL
- ART concentration per group, summary block [1, 11]: 9372.33 ng/mL
- ART original concentration, single replicate [1, 12]: 9503.98 ng/mL and 6910.68 ng/mL and 13549.62 ng/mL
- ART original concentration, column mean [1, 12]: 10230.15 ng/mL
- ART concentration per group, summary block [1, 12]: 9988.09 ng/mL
- ART original concentration, single replicate [1, 13]: 10562.24 ng/mL and 7482.04 ng/mL and 15676.89 ng/mL
- ART original concentration, column mean [1, 13]: 11579.46 ng/mL
- ART concentration per group, summary block [1, 13]: 11240.39 ng/mL
- ART original concentration, single replicate [1, 14]: 9970.47 ng/mL and 7130.75 ng/mL and 15441.45 ng/mL
- ART original concentration, column mean [1, 14]: 11286.10 ng/mL
- ART concentration per group, summary block [1, 14]: 10847.56 ng/mL
- ART original concentration, single replicate [1, 15]: 7047.15 ng/mL and 14960.70 ng/mL and 8594.06 ng/mL
- ART original concentration, column mean [1, 15]: 11777.38 ng/mL
- ART concentration per group, summary block [1, 15]: 10200.64 ng/mL
- Papp A→B at 180 min, 10 μM ([2]; Caco-2, 10 μM ART alone (PU)): 7.49 ± 0.35 ×10⁻⁶ cm/s
- Papp B→A at 180 min, 10 μM ([2]; Caco-2, 10 μM ART alone (PU)): 82.3 ± 2.1 ×10⁻⁶ cm/s
- Papp A→B at 180 min, 10 μM [2, 16]: 8.42 ± 0.37 ×10⁻⁶ cm/s
- Papp B→A at 180 min, 10 μM [2, 16]: 52.7 ± 2.3 ×10⁻⁶ cm/s

SMILES: C[C@@H]1CC[C@H]2[C@@H](C)C(=O)O[C@@H]3O[C@@]4(C)CC[C@@H]1[C@]32O4 [DEART, Deoxyartemisinin]
- reduction of R123 transport from the BL side to the AP side [3]: 22.40%
